Results on 25 compounds are retold here after patent US12479831B2, “Substituted N(-methyl-D3)pyridazine-3-carboxamide or M-(methyl-D3)-nicotinamide compounds as IL-12, IL-23 and/or IFNα modulators” (BRISTOL-MYERS SQUIBB COMPANY, priority 2020, dated 2025).

By IC50 is commonly meant the concentration that inhibits the measured activity by half.

The test relates to IFNα-Induced STAT Phosphorylation in Human Whole Blood. Briefly: IFNα-Induced STAT Phosphorylation in Human Whole Blood. Format: cell-based. The note with it: 1 h incubation with compound, 1000 U/mL recombinant human IFNα A/D for 15 min, pSTAT5 (pY694) median fluorescence intensity in CD3 positive population, read-out: hWB IC50. As to the method:
IFNα-Induced STAT Phosphorylation in Human Whole Blood
After an hour long incubation with compound, human whole blood (drawn with either EDTA or ACD-A as anti-coagulant) was stimulated with 1000 U/mL recombinant human IFNα A/D (R&D Systems 11200-2) for 15 min. The stimulation was stopped by adding Fix/Lyse buffer (BD 558049). Cells were stained with a CD3 FITC antibody (BD 555916), washed, and permeabilized on ice using Perm III buffer (BD 558050). […] The amount of pSTAT5 expression was quantitated by median fluorescence intensity after gating on the CD3 positive population.
IFNα-Induced STAT Phosphorylation in Human Whole Blood Inhibition Data
As to `[2H]C([2H])([2H])NC(=O)c1nnc(NC(=O)C2CC2)cc1Nc1cccc(-c2ncc3ncn(C)c3n2)c1OC` [Example 1, 6-(Cyclopropanecarboxamido)-4-((2-methoxy-3-(9-methyl-9H-purin-2-yl)phenyl)amino)-N-(methyl-d3)pyridazine-3-carboxamide], the IC50 stood at 254 nM. With `[2H]C([2H])([2H])NC(=O)c1nnc(NC(=O)C2CC2)cc1Nc1cccc(-c2ncc(C#N)cn2)c1OC` [Example 2, 4-((3-(5-cyanopyrimidin-2-yl)-2-methoxyphenyl)amino)-6-(cyclopropanecarboxamido)-N-(methyl-d3)pyridazine-3-carboxamide] the figure was 426 nM; with `[2H]C([2H])([2H])NC(=O)c1nnc(NC(=O)C2CC2)cc1Nc1cccc(-c2nccc(C#N)n2)c1OC` [Example 3, 4-((3-(4-cyanopyrimidin-2-yl)-2-methoxyphenyl)amino)-6-(cyclopropanecarboxamido)-N-(methyl-d3)pyridazine-3-carboxamide], 144 nM; with `[2H]C([2H])([2H])NC(=O)c1nnc(NC(=O)C2CCC2)cc1Nc1cccc(-c2ncccn2)c1OC` [Example 4, 6-(cyclobutanecarboxamido)-4-((2-methoxy-3-(pyrimidin-2-yl)phenyl)amino)-N-(methyl-d3)pyridazine-3-carboxamide], 348 nM. With `[2H]C([2H])([2H])NC(=O)c1nnc(NC(=O)C2CC2)cc1Nc1cc(F)cc(-c2ncccn2)c1OC` [Example 7, 6-(cyclopropanecarboxamido)-4-((5-fluoro-2-methoxy-3-(pyrimidin-2-yl)phenyl)amino)-N-(methyl-d3)pyridazine-3-carboxamide] the figure was 196 nM; with `[2H]C([2H])([2H])NC(=O)c1nnc(NC(=O)C2CC2)cc1Nc1cccc(-c2ccc(=O)n(C)n2)c1OC` [Example 9, 6-(cyclopropanecarboxamido)-4-((2-methoxy-3-(1-methyl-6-oxo-1,6-dihydropyridazin-3-yl)phenyl)amino)-N-(methyl-d3)pyridazine-3-carboxamide], 214 nM; with `[2H]C([2H])([2H])NC(=O)c1nnc(NC(=O)C2CC2)cc1Nc1cccc(-c2cn(C)c(=O)cn2)c1OC` [Example 10, 6-(cyclopropanecarboxamido)-4-((2-methoxy-3-(4-methyl-5-oxo-4,5-dihydropyrazin-2-yl)phenyl)amino)-N-(methyl-d3)pyridazine-3-carboxamide], 194 nM. The value for `[2H]C([2H])([2H])NC(=O)c1nnc(NC(=O)C2CC2)cc1Nc1cccc(-c2cc(=O)n(C)cn2)c1OC` [Example 12, 6-(cyclopropanecarboxamido)-4-((2-methoxy-3-(1-methyl-6-oxo-1,6-dihydropyrimidin-4-yl)phenyl)amino)-N-(methyl-d3)pyridazine-3-carboxamide] was 204 nM; that for `[2H]C([2H])([2H])NC(=O)c1nnc(NC(=O)C2CC2)cc1Nc1cccc(-c2ncc(N3CCOCC3)cn2)c1OC` [Example 13, 6-(cyclopropanecarboxamido)-4-((2-methoxy-3-(5-morpholinopyrimidin-2-yl)phenyl)amino)-N-(methyl-d3)pyridazine-3-carboxamide] was 95 nM; that for `[2H]C([2H])([2H])NC(=O)c1cnc(NC(=O)C2CC2)cc1Nc1cccc(-c2ncc(N3CCOCC3)cn2)c1OC` [Example 16, 6-(cyclopropanecarboxamido)-4-((2-methoxy-3-(5-morpholinopyrimidin-2-yl)phenyl)amino)-N-(methyl-d3)nicotinamide] was 54 nM.

Consider `[2H]C([2H])([2H])NC(=O)c1nnc(NC(=O)C2CC2)cc1Nc1cc(F)cc(-c2ccc(C(C)(C)O)nn2)c1OC` [Example 22, 6-(cyclopropanecarboxamido)-4-((5-fluoro-3-(6-(2-hydroxypropan-2-yl)pyridazin-3-yl)-2-methoxyphenyl)amino)-N-(methyl-d3)pyridazine-3-carboxamide], for which the IC50 was found to be 120 nM. With `[2H]C([2H])([2H])NC(=O)c1nnc(NC(=O)C2CC2)cc1Nc1cccc(-c2ccc(C(C)(O)CC)nn2)c1OC` (stereo not shown) [Example 23, 6-(cyclopropanecarboxamido)-4-((3-(6-(2-hydroxybutan-2-yl)pyridazin-3-yl)-2-methoxyphenyl)amino)-N-(methyl-d3)pyridazine-3-carboxamide] the figure was 32 nM.

Take `[2H]C([2H])([2H])NC(=O)c1nnc(NC(=O)C2CC2)cc1Nc1cc(F)cc(-c2cnc(C(C)O)cn2)c1OC` (stereo not shown) [Example 24, 6-(cyclopropanecarboxamido)-4-((5-fluoro-3-(5-(1-hydroxyethyl)pyrazin-2-yl)-2-methoxyphenyl)amino)-N-(methyl-d3)pyridazine-3-carboxamide]: the IC50 was 167 nM. The value for `[2H]C([2H])([2H])NC(=O)c1nnc(NC(=O)C2CC2)cc1Nc1cccc(-c2ncc(C(C)(O)CF)cn2)c1OC` (stereo not shown) [Example 26, 6-(cyclopropanecarboxamido)-4-((3-(5-(1-fluoro-2-hydroxypropan-2-yl)pyrimidin-2-yl)-2-methoxyphenyl)amino)-N-(methyl-d3)pyridazine-3-carboxamide] was 16 nM; that for `[2H]C([2H])([2H])NC(=O)c1nnc(NC(=O)C2CC2)cc1Nc1cccc(-c2ncc(C3(O)CCC3)cn2)c1OC` [Example 27, 6-(cyclopropanecarboxamido)-4-((3-(5-(1-hydroxycyclobutyl)pyrimidin-2-yl)-2-methoxyphenyl)amino)-N-(methyl-d3)pyridazine-3-carboxamide] was 63 nM. Turning to `[2H]C([2H])([2H])NC(=O)c1nnc(NC(=O)C2CC2)cc1Nc1cc(F)cc(-c2ncc(C3(O)CCC3)cn2)c1OC` [Example 28, 6-(cyclopropanecarboxamido)-4-((5-fluoro-3-(5-(1-hydroxycyclobutyl)pyrimidin-2-yl)-2-methoxyphenyl)amino)-N-(methyl-d3)pyridazine-3-carboxamide], the IC50 stood at 170 nM. Take `[2H]C([2H])([2H])NC(=O)c1nnc(NC(=O)C2CC2)cc1Nc1cccc(-c2ncc(C(O)(CF)CF)cn2)c1OC` [Example 29, 6-(cyclopropanecarboxamido)-4-((3-(5-(1,3-difluoro-2-hydroxypropan-2-yl)pyrimidin-2-yl)-2-methoxyphenyl)amino)-N-(methyl-d3)pyridazine-3-carboxamide]: the IC50 was 39 nM. The value for `[2H]C([2H])([2H])NC(=O)c1nnc(NC(=O)C2CC2)cc1Nc1cccc(-c2ncc(C3(O)CCOC3)cn2)c1OC` (stereo not shown) [Example 31, 6-(cyclopropanecarboxamido)-4-((3-(5-(3-hydroxytetrahydrofuran-3-yl)pyrimidin-2-yl)-2-methoxyphenyl)amino)-N-(methyl-d3)pyridazine-3-carboxamide] was 24 nM; that for `[2H]C([2H])([2H])NC(=O)c1nnc(NC(=O)C2CC2)cc1Nc1cc(F)cc(-c2ncc(C(C)(O)CF)cn2)c1OC` (stereo not shown) [Example 32, 6-(cyclopropanecarboxamido)-4-((5-fluoro-3-(5-(1-fluoro-2-hydroxypropan-2-yl)pyrimidin-2-yl)-2-methoxyphenyl)amino)-N-(methyl-d3)pyridazine-3-carboxamide] was 71 nM; that for `[2H]C([2H])([2H])NC(=O)c1nnc(NC(=O)C2CC2)cc1Nc1cccc(-c2cnc(C3(O)COC3)cn2)c1OC` [Example 33, 6-(cyclopropanecarboxamido)-4-((3-(5-(3-hydroxyoxetan-3-yl)pyrazin-2-yl)-2-methoxyphenyl)amino)-N-(methyl-d3)pyridazine-3-carboxamide] was 43 nM. With `[2H]C([2H])([2H])NC(=O)c1nnc(NC(=O)C2CC2)cc1Nc1cccc(-c2cnc(C3(O)CCOC3)cn2)c1OC` (stereo not shown) [Example 34, 6-(cyclopropanecarboxamido)-4-((3-(5-(3-hydroxytetrahydrofuran-3-yl)pyrazin-2-yl)-2-methoxyphenyl)amino)-N-(methyl-d3)pyridazine-3-carboxamide] the figure was 36 nM; with `[2H]C([2H])([2H])NC(=O)c1nnc(NC(=O)C2CC2)cc1Nc1cccc(-c2cnc(C(C)(O)CF)cn2)c1OC` (stereo not shown) [Example 35, 6-(cyclopropanecarboxamido)-4-((3-(5-(1-fluoro-2-hydroxypropan-2-yl)pyrazin-2-yl)-2-methoxyphenyl)amino)-N-(methyl-d3)pyridazine-3-carboxamide], 107 nM. The value for `[2H]C([2H])([2H])NC(=O)c1nnc(NC(=O)C2CC2)cc1Nc1cccc(-c2cnc(C(=O)N3CC[C@@H](F)C3)cn2)c1OC` [Example 37, (R)-6-(cyclopropanecarboxamido)-4-((3-(5-(3-fluoropyrrolidine-1-carbonyl)pyrazin-2-yl)-2-methoxyphenyl)amino)-N-(methyl-d3)pyridazine-3-carboxamide] was 97 nM; that for `[2H]C([2H])([2H])NC(=O)c1nnc(NC(=O)C2CC2)cc1Nc1cccc(-c2cnc(C(=O)N3CCOCC3)cn2)c1OC` [Example 38, 6-(cyclopropanecarboxamido)-4-((2-methoxy-3-(5-(morpholine-4-carbonyl)pyrazin-2-yl)phenyl)amino)-N-(methyl-d3)pyridazine-3-carboxamide] was 44 nM. In the case of `[2H]C([2H])([2H])NC(=O)c1nnc(NC(=O)C2CC2)cc1Nc1cccc(-c2cnc(C(=O)NC)cn2)c1OC` [Example 39, 6-(cyclopropanecarboxamido)-4-((2-methoxy-3-(5-(methylcarbamoyl)pyrazin-2-yl)phenyl)amino)-N-(methyl-d3)pyridazine-3-carboxamide], the IC50 came out at 218 nM.
